Reference: patent US20250090565A1, “Compositions and Methods for Treating Bleeding and Bleeding Disorders” (YewSavin, Inc., priority 2021, published 2025)
Entries after “also recorded” stand apart in the source; their conditions may differ.

Tests used:
[1] = test system: ex vivo Hemophilia A human blood; test: Ca+2ACT whole blood coagulation time test, Hemophilia A human blood; assay type: biochemical; conditions: for mean clotting time: Hemophilia A blood specimens
From the text: (§1) While there are standardized tests such as Activated Partial Thromboplastin Time (“aPTT”) and Partial Thromboplastin Time (“PPT”) that measure blood clotting times (i.e., coagulation times), none of these tests are amenable to testing a small molecule drug, mainly due to the fact that the clotting agents added in these tests completely overcome the effect of the drug. A Calcium +2 ion Activated Coagulation Time test (“Ca+2ACT test”) was developed for measuring coagulation times that is devoid of the activators, thereby allowing drug candidates to be tested and verify their effects. The results described below use whole blood clotting assay and measure the coagulation of blood (i.e., blood's ability to clot), specifically, how much time is required for the clotting.
In this study, calcium chloride (“CaCl2”), a standard coagulating compound, is used as a control to compare the efficacy of various test samples. DMA is used as vehicle for various test samples. In a first study, a freshly prepared 5 μl test sample in DMA is added to a 100 μl blood specimen and then incubated in incubation slot of KC1 Delta machine Correlated Stago-Startmax for 37° C. for 3 min. For the control sample, 50 μl of CaCl2 solution is added, and timer started, to a 100 μl blood specimen to provide a baseline against the test sample. A stop watch, and automated electronic machine display, is used to measure the coagulation time in connection with an electronic signal provided the testing machine. Fresh citrated blood specimen from six healthy volunteers and six hemophilia patients, with initial standard citrate concentration in the collected blood of 3.5%, and “in cuvette” calcium +2 activation (by addition of CaCl2 solution) was obtained.
In this study, the effect of drug is measured by coagulation time of blood using the Ca+2ACT test, in presence of variable concentration of the drug in the test sample. The efficacy tests used 5 microliter of 40 mg/mL solution added to 155 microliter final volume in the clotting cuvette, corresponding to […] of the clotting mixture. For the dose dependence studies, we examined three persons. The twelve concentrations range chosen is 5 microliter of 0.05 mg/mL to 40 mg/mL, the vehicle being zero point concentration. This corresponds to mimimum concentration in the study of 1.66 microgram/mL or 1.66 ppm of the drug, not withstanding Vehicle Control of zero. […] FIG. 45 illustrates coagulation time versus concentration for the candidate molecule 1 for blood specimens from a second patient. FIG. 46 illustrates coagulation time versus concentration for the candidate molecule 1 for blood specimens from a third patient.
As discussed above, the effect is measured by coagulation time of blood using the Ca+2ACT test, in presence of variable concentration of the drug. Initial efficacy tests used 5 microliters of 40 mg/mL solution added to 155 microliter final volume in the clotting cuvette, corresponding to 1.29 mg/1000 mg of the clotting mixture. More recent tests used 10E-2 to 10E-22 as concentration range with 1E-2 interval. Samples were tested no later than eight hours after collection, and preferably, no later than four hours after collection. Often times, with very low and zero concentrations of clotting agents, although the instrument recorded a clotting time, the samples were fluid and partially coagulated at best. However, good fit was obtained at 1E-18 and good statistical difference was obtained at 1E-16, with significant statistical p-values at 10E-8 and higher concentrations, a very good range for drug design. […] The dose dependence study was performed using NDA solvent, and water in case of Eloctate™.

FVIII-deficient plasma = test: Thrombin generation assay (TGA) in FVIII-deficient plasma; assay type: biochemical, human; conditions: for thrombin generation ETP dependence on concentration: 0.01 mg/ml, 0.1 mg/ml, and 0.4 mg/ml in FVIII-deficient plasma
From the text: Thrombin generation is regarded as a significant indicator of the efficiency of blood clotting. Therefore, the thrombin generation assay (“TGA”) can be used as a proxy to estimate overall blood clotting efficiency of factor proteins and others agents from observing the clotting of plasma samples. The thrombin generation experiments were run using a microtiter plate fluorometer. Solvent systems consisting of a buffer, a fluorogenic substrate, and eight candidate compounds in inert solvents were added to pre-warmed citrated FVIII-deficient plasma along with tissue factor. The clotting reactions in the plasma-compound mixtures were initiated by adding calcium chloride solution to all the samples, and the fluorescence measurements recorded by the fluorimeter were compared against negative control (FVIII-deficient plasma without compounds or solvent system), vehicle control (FVIII-deficient plasma with solvent system only), and positive control (FVIII-deficient plasma mixed with regular plasma) reference measurements.
Each of the eight candidate compounds was tested via the TGA at three different concentrations.

Wistar rats = test: Ex vivo capillary clotting assay in Wistar rats; conditions: ex vivo oral, compared with chromatography fractions (FIG. 3)
From the text: During the bioassay-guided fractionation process, blood clotting time was used as a screen for active compounds, and a particular class of compounds known as chalcones was discovered to induce blood coagulation. FIG. 3 illustrates a sample result from an ex vivo capillary clotting assay in Wistar rats in accordance with various embodiments of the invention as described in further detail below.

[2] = test system: Factor VIII Deficient Mice; test: Tail bleeding assay in FVIII-KO mice; assay type: in vivo
Experimental: (§2) The purpose of this experiment was to evaluate the effectiveness of chalcones on tail bleeding time in mice. […] A distal 10 mm segment of each mouse's tail was amputated with a scalpel and the remaining tail stump was immediately immersed in a 50 mL Falcon tube containing isotonic saline pre-warmed in a water bath to 37° C. Each mouse was allowed to bleed freely for 20 minutes even if bleeding ceased, in order to detect any re-bleeding. Bleeding time was determined using a stopwatch. At the end of the 20 minutes, the experiment was terminated to avoid lethality. All animals were then bled additionally to obtain a sufficient amount of blood for determining fibrinogen content. Organs were collected, weighed and preserved for future assays.

normal plasma = test: Thrombin generation assay (TGA) in normal plasma; assay type: biochemical, human
heparinized rabbit blood = test: Heparinized clotting test (in vitro); assay type: biochemical
Experimental: The purpose of this experiment was to deduce a potential mechanism of action for chalcones in decreasing blood clotting and bleeding time. First, rabbit blood (200 μL) was added to the anticoagulant drug heparin (1.25 IU) in Eppendorf Tubes®. […] In untreated blood that is still inside a human or an animal, heparan sulfate that is found on cellular surfaces plays an equivalent role to heparin by forming a heparan-antithrombin complex and activating antithrombin.

[3] = Bodyweight of Factor VIII deficient mice; assay type: in vivo; conditions: FVIII deficient mice, mean (spread)
[4] = test system: ex vivo healthy human blood; test: Ca+2ACT whole blood coagulation time test, healthy human blood; assay type: biochemical; conditions: 1 mg/ml, healthy blood specimens; vehicle control 208.87 seconds
From the text: as §1
In this study, calcium chloride (“CaCl2”), a standard coagulating compound, is used as a control to compare the efficacy of various test samples. DMA is used as vehicle for various test samples. In a first study, a freshly prepared 5 μl test sample in DMA is added to a 100 μl blood specimen and then incubated in incubation slot of KC1 Delta machine Correlated Stago-Startmax for 37° C. for 3 min. For the control sample, 50 μl of CaCl2 solution is added, and timer started, to a 100 μl blood specimen to provide a baseline against the test sample. […]

[5] = test system: Factor VIII Deficient Mice; test: Fibrin (fibrinogen) content of blood of Factor VIII deficient mice; assay type: in vivo; conditions: FVIII deficient mice, blood taken at end of experiment
Experimental: as §2

[6] = test system: Factor VIII Deficient Mice; test: Capillary clotting time in Factor VIII deficient mice; assay type: in vivo; conditions: FVIII deficient mice; HF-2021a oral once daily for seven days; FVIII intravenous

Molecule: CC(C)=CCOc1ccc(/C=C/C(=O)c2ccc(OCC=C(C)C)cc2OCC(=O)O)cc1 [HF-2021e, 2-[5-(3-methylbut-2-enoxy)-2-[(E)-3-[4-(3-methylbut-2-enoxy)phenyl]prop-2-enoyl]phenoxy]acetic acid]
- mean clotting time ([1]; 0.1 mg/mL, vehicle control 247.61 seconds): 118.92 s
- coagulation times compared with Eloctate ([1]; HF2021e in NDA, Eloctate in water (FIG. 43)): higher than the coagulation times for Eloctate™
- EC50 compared with Eloctate ([1]; concentration for 50% of the total effect on coagulation time (FIG. 43)): lower than for Eloctate™
- coagulation time dependence on dose ([1]; dose dependence study in NDA solvent (FIG. 43)): linear coagulation time dependence
- thrombin generation ETP dependence on concentration (FVIII-deficient plasma): observed dose dependence
- thrombin concentration and ETP, combined dosing with HEMLIBRA (FVIII-deficient plasma; 0.1 mg/mL combined with 25, 50, 75 μg/ml HEMLIBRA, versus each drug alone (FIG. 32, 33)): greater thrombin concentrations and ETPs than any individual dosage
- thrombin concentration and ETP, combined dosing with HEMLIBRA (FVIII-deficient plasma; 0.1 mg/ml + 25 μg/ml HEMLIBRA versus 75 μg/ml HEMLIBRA alone): slightly more thrombin concentration and ETP
- possible cut of the required dose of HEMLIBRA on concurrent use (FVIII-deficient plasma; 0.1 mg/ml + 25 μg/ml HEMLIBRA, roughly same thrombin generation as 75 μg/ml): 67%
- effect on thrombin concentration and ETP compared with HEMLIBRA (FVIII-deficient plasma; 0.4 mg/ml versus lowest tested HEMLIBRA concentration 25 μg/ml (FIG. 30, 31)): slightly lower effect

Molecule: 4-methoxyphenyl-3-(2,4-dimethoxyphenyl)-1-oxo-2-propene [HF-2021f]
- thrombin generation ETP dependence on concentration (FVIII-deficient plasma): observed dose dependence

Molecule: COc1cc(O)c(C(=O)C=Cc2ccc(O)cc2)c(OC)c1OC [HF-2021a, 1-(6-Hydroxy-2,3,4-trimethoxyphenyl)-3-(4-hydroxy-phenyl)prop-2-en-1-one]
- effect on capillary clotting time (Wistar rats): nearly identical to that of the chromatography fractions
- mean clotting time ([1]; 1 mg/mL, vehicle control 228.92 seconds): 64.92 s
- coagulation time versus concentration ([1]; blood specimens of three patients, twelve concentrations (FIG. 44-46)): clear dependency
- Optical Density ([2]; FVIII deficient mice, tail bleeding experiment): 0.5 (0.1)
- tail bleeding time (in words) ([2]; FVIII-KO mice, repeated oral administrations, versus standard FVIII therapy (FIG. 4)): outperforming the standard FVIII therapy; also recorded: significantly improved
- Survival Rate ([2]; after 48 hours): 3/5 after
- Bleeding Time (Seconds) ([2]; tail amputation 10 mm, saline 37° C., HF-2021a oral once daily for seven days, FVIII intravenous): 41.8 (9.7) Seconds
- thrombin generation curves versus concentration (normal plasma; normal plasma (FIG. 20)): dose dependent response
- thrombin generation ETP versus concentration (normal plasma; normal plasma (FIG. 21)): dose dependent response is also observed
- thrombin generation ETP dependence on concentration (FVIII-deficient plasma): observed dose dependence
- effect on thrombin concentration and ETP compared with HEMLIBRA (FVIII-deficient plasma; 0.1 mg/ml versus any of the concentrations of HEMLIBRA (FIG. 28, 29)): comparable effects
- thrombin response compared with FVIII-deficient plasma containing 10% of normal FVIII (FVIII-deficient plasma; 0.4 mg/ml (FIG. 18, 19)): superior to that of 10% of normal FVIII activity
- effect on thrombin concentration and ETP compared with HEMLIBRA (FVIII-deficient plasma; 0.4 mg/ml versus highest tested HEMLIBRA concentration 75 μg/ml (FIG. 28, 29)): slightly larger effect
- thrombin concentration and ETP, combined with ELOCTATE (FVIII-deficient plasma; all tested concentrations, plasma of a patient who had taken ELOCTATE (FIG. 34, 35)): greater thrombin concentrations and ETPs than ELOCTATE® by itself
- blood clotting time versus concentration (heparinized rabbit blood; rabbit blood 200 μL + heparin 1.25 IU, varying concentrations in DMSO (FIG. 7)): dose dependence relationship was observed
- Bodyweight (Day 0) ([3]; Day 0 (baseline)): 17.4 (1.4)
- Bodyweight (Day 7) ([3]; Day 7): 18.8 (1.1)
- mean clotting time [4]: 74.12 s
- Fibrin content (mg/dL) [5]: 281.2 (44.1) mg/dL
- Capillary Clotting Time (Seconds) [6]: 44.6 (13.2) Seconds

Molecule: COc1ccc(C=CC(=O)c2c(O)cc(O)cc2O)cc1 [ISK-CH, Iso-Sakutanetin Chalcone]
- mean clotting time ([1]; 1×10^−7 mg/mL, vehicle control 200.87 seconds): 116.4 s

Molecule: O=C(/C=C/c1ccc(O)cc1)c1c(O)cc(O)cc1O [HF-2021g, (E)-3-(4-hydroxyphenyl)-1-(2,4,6-trihydroxyphenyl)prop-2-en-1-one]
- thrombin generation ETP dependence on concentration (FVIII-deficient plasma): observed dose dependence

Molecule: COc1ccc(C=CC(=O)c2c(O)cc(OC)cc2OC)cc1 [HF-2021b, 1-(2-hydroxy-4,6-dimethoxyphenyl)-3-(4-methoxyphenyl)prop-2-en-1-one]
- thrombin generation ETP dependence on concentration (FVIII-deficient plasma): observed dose dependence
- activity in the heparinized blood assay (heparinized rabbit blood; heparinized blood): active blood clotting agent

Molecule: COc1ccc(/C=C/C(=O)c2c(O)cc(O[C@@H]3O[C@H](CO[C@@H]4O[C@@H](C)[C@H](O)[C@@H](O)[C@H]4O)[C@@H](O)[C@H](O)[C@H]3O)cc2OC)cc1O [HF-2021d, (E)-3-(3-hydroxy-4-methoxyphenyl)-1-[2-hydroxy-6-methoxy-4-[(2S,3R,4S,5S,6R)-3,4,5-trihydroxy-6-[[(2R,3R,4R,5R,6S) -3,4,5-trihydroxy-6-methyloxan-2-yl]oxymethyl]oxan-2-yl]oxyphenyl]prop-2-en-1-one]
- thrombin generation ETP dependence on concentration (FVIII-deficient plasma): observed dose dependence

Molecule: O=C(C=Cc1ccc2c(c1)OCO2)c1ccccc1 [HF-2022a, 3-(1,3-Benzodioxol-5-yl)-1-phenyl-2-propen-1-one]
- thrombin generation ETP dependence on concentration (FVIII-deficient plasma): observed dose dependence

Molecule: O=C(/C=C/c1ccc(O)cc1)c1ccc(O)cc1O [HF-2021c, (E)-1-(2,4-dihydroxyphenyl)-3-(4-hydroxyphenyl)prop-2-en-1-one]
- thrombin generation ETP dependence on concentration (FVIII-deficient plasma): observed dose dependence
